From patent US20250051355A1, “COMPOUNDS, COMPOSITIONS, AND METHODS” (ACONCAGUA BIO, INC., priority 2023, published 2025)

Target: human calcitonin receptor (CTR) and RAMP3 (AMY3) (Homo sapiens, UniProt O60896+P30988)
Assay: Amylin Receptor cAMP Assay I
Assay type: cell-based
Settings: COS-7/AMY3 cells, cAMP Hi-range Kit, read-out: Amylin Receptor cAMP Stimulation Activity: EC50
Source text: Amylin Receptor cAMP Assay I
AMYRs are heterodimers of the class B calcitonin (CT) G-protein-coupled receptor (CTR) and receptor activity-modifying proteins (RAMPs). All three RAMPs can interact with the CTR and form AMY1, AMY2, AMY3 with RAMP1, RAMP2 and RAMP3, respectively. Like other class B1 GPCRs, the CT receptor family is canonically coupled to Gs-mediated cAMP production, and measurement of cAMP accumulation has been the primary assay used to determine peptide selectivity and potency.
To optimize functional activity directed toward Gas coupling, COS-7 cells were stably transfected with human calcitonin receptor (CTR) and RAMP3, simultaneously. 100×concentration of compound working solutions were prepared (Agilent Technologies Bravo) with 4-fold serial dilution in 384-well Echo LDV plate (Labcyte, Cat #LP-0200). 100 nL/well 100× concentration of compound working solutions were moved to 384-well white low volume plate (Greiner, Cat #784075) using Labcyte ECHO550. 1×10^5 cells/mL COS-7/CTR or COS-7/AMY3 (HD Biosciences) cell suspensions prepared with assay buffer [DPBS containing 0.5 mM IBMX (Sigma, Cat #15879) and 0.1% BSA (GENVIEW, Cat #FAO16-100 g)], 10 μL cell suspensions were added to each well of previous generated assay plate which already contains 100 nL compound at 100× concentration using ThermoFisher Multidrop Combi (1000 cells/well). Seal the plate and incubate at 37° C. with 5% CO2 for 30 min.
After incubation, the cAMP assay signal was generated using cAMP Hi-range Kit (Cisbio). 5 μL cAMP-d2 working solution was added to each well, followed by 5 μL Anti-cAMP antibody-cryptate working solution which was added to each well using ThermoFisher Multidrop Combi. The samples were then incubated at room temperature for 1 hour protected from light. the fluorescence was read at 665 and 615 nm with Reader PerkinElmer EnVision.

human calcitonin receptor (CTR) and RAMP3 (AMY3), sequence (O60896 24-148): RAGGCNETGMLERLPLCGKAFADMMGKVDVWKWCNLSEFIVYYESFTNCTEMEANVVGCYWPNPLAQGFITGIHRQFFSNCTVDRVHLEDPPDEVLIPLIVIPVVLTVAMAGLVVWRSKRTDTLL
human calcitonin receptor (CTR) and RAMP3 (AMY3), sequence (P30988 25-474): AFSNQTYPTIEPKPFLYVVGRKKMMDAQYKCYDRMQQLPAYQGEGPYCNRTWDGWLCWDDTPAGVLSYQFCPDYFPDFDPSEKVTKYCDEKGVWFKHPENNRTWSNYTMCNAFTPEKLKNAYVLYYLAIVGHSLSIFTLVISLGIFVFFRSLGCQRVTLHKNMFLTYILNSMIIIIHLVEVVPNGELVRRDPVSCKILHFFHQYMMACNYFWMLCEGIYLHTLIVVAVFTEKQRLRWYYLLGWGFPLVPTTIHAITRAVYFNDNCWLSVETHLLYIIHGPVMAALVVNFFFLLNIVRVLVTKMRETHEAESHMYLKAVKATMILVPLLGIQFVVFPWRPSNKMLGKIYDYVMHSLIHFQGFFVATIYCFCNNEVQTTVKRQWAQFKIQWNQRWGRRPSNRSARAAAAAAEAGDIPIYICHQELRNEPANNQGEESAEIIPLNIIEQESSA

`Cc1nnc(-c2c(CCc3ccc(F)cc3)nc3c(c2-c2ccc(C(=O)NC4CC(O)c5ccccc54)s2)C(=O)N2CCC[C@@H]32)o1` (stereo partly drawn) [Compound 11, 5-((S)-2-(4-fluorophenethyl)-3-(5-methyl-1,3,4-oxadiazol-2-yl)-5-oxo-7,8,9,9a-tetrahydro-5H-pyrido[2,3-a]pyrrolizin-4-yl)-N-(3-hydroxy-2,3-dihydro-1H-inden-1-yl)thiophene-2-carboxamide] showed an EC50 of 48.1 nM.
Molecule `Cc1nnc(-c2c(CCc3ccc(F)cc3)nc3c(c2-c2ccc(C(=O)NCc4cncc(F)c4)s2)C(=O)N2CCC[C@@H]32)o1` [Compound 12, (S)-5-(2-(4-fluorophenethyl)-3-(5-methyl-1,3,4-oxadiazol-2-yl)-5-oxo-7,8,9,9a-tetrahydro-5H-pyrido[2,3-a]pyrrolizin-4-yl)-N-((5-fluoropyridin-3-yl)methyl)thiophene-2-carboxamide] has an EC50 of 113 nM.
Molecule `COc1cccc2c1CC[C@H]2NC(=O)c1ccc(-c2c3c(nc(CCc4ccc(F)cc4)c2-c2nnc(C)o2)[C@@H]2CCCN2C3=O)s1` [Compound 13, N—[(R)-4-methoxy-1-indanyl]-5-((2S)-11-[2-(p-fluorophenyl)ethyl]-10-(5-methyl-1,3,4-oxadiazol-2-yl)-7-oxo-6,12-diazatricyclo[6.4.0.0^2,6]dodeca-1(12),8,10-trien-9-yl}-2-thenamide] has an EC50 of 29.7 nM.
Molecule `Cc1cnc(-c2c(CCc3ccc(F)cc3)nc3c(c2-c2ccc(C(=O)NCc4ccc(F)c(F)c4)s2)C(=O)N2CCC[C@@H]32)o1` [Compound 14, N-(3,4-difluorophenyl)methyl-5-{(2S)-11-[2-(p-fluorophenyl)ethyl]-10-(5-methyl-1,3-oxazol-2-yl)-7-oxo-6,12-diazatricyclo[6.4.0.0^2,6]dodeca-1(8),9,11-trien-9-yl)-2-thenamide] has an EC50 of 12.6 nM.
In the case of `Cc1nnc(-c2c(CCc3ccc(F)cc3)nc3c(c2-c2ccc(C(=O)N[C@@H]4CCc5ccccc54)s2)C(=O)NC[C@H]3C(C)C)o1` [Compound 16, N—((R)-2,3-dihydro-1H-inden-1-yl)-5-((R)-2-(4-fluorophenethyl)-8-isopropyl-3-(5-methyl-1,3,4-oxadiazol-2-yl)-5-oxo-5,6,7,8-tetrahydro-1,6-naphthyridin-4-yl)thiophene-2-carboxamide], the EC50 is reported as 2370 nM.
`Cc1nnc(-c2c(CCc3ccc(F)cc3)nc3c(c2-c2ccc(C(=O)NCc4ccc(F)c(F)c4)s2)C(=O)N2CCCC[C@@H]32)o1` [Compound 20] showed an EC50 of 79 nM.
With `CC(C)c1nnc(-c2c(CCc3ccc(F)cc3)nc3c(c2-c2ccc(C(=O)NCc4ccc(F)c(F)c4)s2)C(=O)N2CCC[C@@H]32)o1` [Compound 21] the EC50 was 37 nM.
In the case of `Cc1ccc(CCc2nc3c(c(-c4ccc(C(=O)NCc5ccc(F)c(F)c5)s4)c2-c2nnc(C)o2)C(=O)N2CCC[C@@H]32)cn1` [Compound 22], the EC50 is reported as 1130 nM.
In the case of `Cc1cnc(-c2c(CCc3ccc(F)cc3)nc3c(c2-c2ccc(C(=O)NCc4ccc(F)c(F)c4)s2)S(=O)(=O)N2CCC[C@@H]32)o1` [Compound 24], the EC50 is reported as 80 nM.
In the case of `Cc1nnc(-c2c(COC3CCCCC3)nc3c(c2-c2ccc(C(=O)NCc4ccc(F)c(F)c4)s2)C(=O)N2CCC[C@@H]32)o1` [Compound 25], the EC50 is reported as 512 nM.
`Cc1nnc(-c2c(COC3CCOCC3)nc3c(c2-c2ccc(C(=O)NCc4ccc(F)c(F)c4)s2)C(=O)N2CCC[C@@H]32)o1` [Compound 26] gave an EC50 of 1600 nM.
Molecule `Cc1nnc(-c2c(CCC3CCC(F)(F)CC3)nc3c(c2-c2ccc(C(=O)NCc4ccc(F)c(F)c4)s2)C(=O)N2CCC[C@@H]32)o1` [Compound 27] has an EC50 of 174 nM.
`Cc1nnc(-c2c(CCc3ccc(F)cc3)nc3c(c2-c2ccc(C(=O)N[C@@H]4CCc5ncccc54)s2)C(=O)N2CCC[C@@H]32)o1` [Compound 28] showed an EC50 of 315 nM.
Molecule `Cc1ncoc1-c1c(CCc2ccc(F)cc2)nc2c(c1-c1ccc(C(=O)NCc3ccc(F)c(F)c3)s1)C(=O)N1CCC[C@@H]21` [Compound 31, (S)—N-(3,4-difluorobenzyl)-5-(2-(4-fluorophenethyl)-3-(4-methyloxazol-5-yl)-5-oxo-7,8,9,9a-tetrahydro-5H-pyrido[2,3-a]pyrrolizin-4-yl)thiophene-2-carboxamide] has an EC50 of 41.2 nM.
In the case of `Cc1nnc(-c2c(COc3ccc(F)cc3)nc3c(c2-c2ccc(C(=O)N[C@@H]4CCc5ncccc54)s2)C(=O)N2CCC[C@@H]32)o1` [Compound 32, N—[(R)-4-aza-1-indanyl]-5-{(2S)-11-[(p-fluorophenoxy)methyl]-10-(5-methyl-1,3,4-oxadiazol-2-yl)-7-oxo-6,12-diazatricyclo[6.4.0.0^2,6]dodeca-1(8),9,11-trien-9-yl}-2-thenamide], the EC50 is reported as 728 nM.
With `Cc1ncoc1-c1c(CCc2ccc(F)cc2)nc2c(c1-c1ccc(C(=O)NCc3ccc(F)c(F)c3)s1)S(=O)(=O)N1CCC[C@@H]21` [Compound 33, (S)—N-(3,4-difluorobenzyl)-5-(2-(4-fluorophenethyl)-3-(4-methyloxazol-5-yl)-5,5-dioxido-7,8,9,9a-tetrahydropyrrolo[1′,2′:2,3]isothiazolo[4,5-b]pyridin-4-yl)thiophene-2-carboxamide] the EC50 was 52.5 nM.
For `Cc1nc(C)c(-c2c(CCc3ccc(F)cc3)nc3c(c2-c2ccc(C(=O)NCc4ccc(F)c(F)c4)s2)C(=O)N2CCC[C@@H]32)o1` [Compound 34, (S)—N-(3,4-difluorobenzyl)-5-(3-(2,4-dimethyloxazol-5-yl)-2-(4-fluorophenethyl)-5-oxo-7,8,9,9a-tetrahydro-5H-pyrido[2,3-a]pyrrolizin-4-yl)thiophene-2-carboxamide], the EC50 was 20.5 nM.
Molecule `Cc1nnc(-c2c(CCOC(C)C)nc3c(c2-c2ccc(C(=O)NCc4ccc(F)c(F)c4)s2)C(=O)N2CCC[C@@H]32)o1` [Compound 35, (S)—N-(3,4-difluorobenzyl)-5-(2-(2-isopropoxyethyl)-3-(5-methyl-1,3,4-oxadiazol-2-yl)-5-oxo-7,8,9,9a-tetrahydro-5H-pyrido[2,3-a]pyrrolizin-4-yl)thiophene-2-carboxamide] has an EC50 of over 100 nM.
`Cc1nnc(-c2c(CCc3ccc(F)cc3)nc3c(c2-c2cc4ccnc(NCc5ccc(F)c(F)c5)c4s2)C(=O)N2CCC[C@@H]32)o1` [Compound 40, (S)-4-(7-((3,4-difluorobenzyl)amino)thieno[2,3-c]pyridin-2-yl)-2-(4-fluorophenethyl)-3-(5-methyl-1,3,4-oxadiazol-2-yl)-7,8,9,9a-tetrahydro-5H-pyrido[2,3-a]pyrrolizin-5-one] gave an EC50 of 20.2 nM.
Work on `Cc1cnc(-c2c(CCc3ccc(F)cc3)nc3c(c2-c2cc4ccnc(NCc5ccc(F)c(F)c5)c4s2)C(=O)N2CCC[C@@H]32)o1` [Compound 41] yielded an EC50 of 22.8 nM.
For `Cc1nnc(-c2c(CCc3cnn(C)c3)nc3c(c2-c2ccc(C(=O)NCc4ccc(F)c(F)c4)s2)C(=O)N2CCC[C@@H]32)o1` [Compound 43, (S)—N-(3,4-difluorobenzyl)-5-(3-(5-methyl-1,3,4-oxadiazol-2-yl)-2-(2-(1-methyl-1H-pyrazol-4-yl)ethyl)-5-oxo-7,8,9,9a-tetrahydro-5H-pyrido[2,3-a]pyrrolizin-4-yl)thiophene-2-carboxamide], the EC50 was 1880 nM.
With `Cc1nnc(-c2c(CC3(c4ccc(F)cc4)CC3)nc3c(c2-c2ccc(C(=O)NCc4ccc(F)c(F)c4)s2)C(=O)N2CCC[C@@H]32)o1` [Compound 49, (S)—N-(3,4-difluorobenzyl)-5-(2-((1-(4-fluorophenyl)cyclopropyl)methyl)-3-(5-methyl-1,3,4-oxadiazol-2-yl)-5-oxo-7,8,9,9a-tetrahydro-5H-pyrido[2,3-a]pyrrolizin-4-yl)thiophene-2-carboxamide] the EC50 was 382 nM.
Work on `Cc1nnc(-c2c(CCc3ccc(F)cc3)nc3c(c2-c2ccc(C(=O)NCc4ccc(F)c(F)c4)s2)C(=O)N2CC[C@H](O)[C@@H]32)o1` [Compound 50, N-(3,4-difluorobenzyl)-5-((9S,9aR)-2-(4-fluorophenethyl)-9-hydroxy-3-(5-methyl-1,3,4-oxadiazol-2-yl)-5-oxo-7,8,9,9a-tetrahydro-5H-pyrido[2,3-a]pyrrolizin-4-yl)thiophene-2-carboxamide] yielded an EC50 of 129 nM.
With `Cc1nnc(-c2c(CC(O)c3ccc(F)cc3)nc3c(c2-c2ccc(C(=O)N[C@@H]4CCc5ccccc54)s2)C(=O)N2CCC[C@@H]32)o1` (stereo partly drawn) [Compound 51, N-[(1R)-2,3-dihydro-1H-indenyl]-5-[(9aS)-2-[2-(4-fluorophenyl)-2-hydroxyethyl]-3-(5-methyl-1,3,4-oxadiazol-2-yl)-5-oxo-7,8,9,9a-tetrahydro-5H-pyrido[2,3-a]pyrrolizin-4-yl]thiophene-2-carboxamide] the EC50 was 551 nM.
With `Cc1nnc(-c2c(CC(F)c3ccc(F)cc3)nc3c(c2-c2ccc(C(=O)N[C@@H]4CCc5ccccc54)s2)C(=O)N2CCC[C@@H]32)o1` (stereo partly drawn) [Compound 52] the EC50 was 126 nM.
In the case of `Cc1nnc(-c2c(CCc3ccc(F)cc3)nc3c(c2-c2cc4ccnc(NCc5ccc(F)c(F)c5)c4s2)C(=O)N2CCCC32O)o1` (stereo not drawn) [Compound 53], the EC50 is reported as 13.1 nM.
Molecule `Cc1cnc(-c2c(CCC3CCOCC3)nc3c(c2-c2ccc(C(=O)NCc4ccc(F)c(F)c4)s2)C(=O)N2CCC[C@@H]32)o1` [Compound 57] has an EC50 of 113 nM.
